Laboratory results reported in publication PMC4226674, “A phase I trial of the HIV protease inhibitor nelfinavir in adults with solid tumors” (Oncotarget, 2014).
“And” between values parts separate entries of the source, which are not always exact repeats. Identical values can stand only once.

What was measured:
[1] = tested on: advanced refractory solid tumors; assay: Tumor response by RECIST and duration of therapy
Method: Physical examinations, toxicity assessments and laboratory analyses were conducted weekly during cycle 1 and then every three weeks beginning cycle 2. An electrocardiogram was performed every cycle, and restaging scans were performed at baseline and every two cycles thereafter. Subjects remained on study until disease progression (as determined by RECIST), severe toxicity, or individual choice.
Tumor response was assessed according to Response Evaluation Criteria in Solid Tumors (RECIST) [34] every two cycles.

P-EIF2 alpha S51 = assay: ER stress marker P-EIF2 alpha in PBMCs by immunoblotting; assay type: in vivo, human; settings: DL4 (3125 mg bid), after 7 or 42 days; printed as 'the same percentage'
Method: Peripheral blood mononuclear cells (PBMCs) were collected at baseline, and then twice after starting nelfinavir: cycle 1 day 7 and cycle 1 day 42. Levels of P-AKT S473, P-EIF2 alpha S51, ATF3 and CHOP in PBMCs before and after nelfinavir were analyzed by immunoblotting. Blood was collected in Vacutainer CPT collection tubes with sodium heparin (BD Biosciences cat# 362753) and mononuclear cells were isolated as per the manufacturer's instructions. PBMCs were washed with PBS and lysed in 2X LSB buffer [33], aliquotted and stored at -80°C. For analysis, equal amounts of protein per sample were run on 10-12% SDS-PAGE gels, then transferred onto nitrocellulose membranes. Membranes were blocked in 5% milk in TBS + 0.1% tween (TBST) and incubated with primary antibody diluted in 5% BSA in TBST at 4 degrees overnight. The next day membranes were washed, incubated with HRP-linked secondary antibody and developed using ECL chemiluminescent reagent (GE Healthcare) and X-ray film as per the manufacturers instructions. The amount of P-AKT S473, P-EIF2 alpha S51, ATF3 or CHOP in the PBMCs at C1D7 and C1D42 were compared against a baseline sample for each patient, (prior to receiving nelfinavir). Antibodies against P-AKT S473 #4060, P-EIF2 alpha S51 #3398 and β-Actin #4970 were from Cell Signaling Technology (Danvers, MA). […]

CYP3A4 = target: T1, CYP3A4 (Homo sapiens, UniProt P08684); assay: CYP3A4 phenotyping with oral midazolam before and at nelfinavir steady state; assay type: in vivo
T1 construct: To determine CYP3A4 phenotype, a single 3 mg oral dose of midazolam hydrochloride, a CYP3A4 substrate, was administered; from tissue; host or cells: in vivo, the patients' own (hepatic/intestinal) enzyme
T1 sequence (P08684 whole entry): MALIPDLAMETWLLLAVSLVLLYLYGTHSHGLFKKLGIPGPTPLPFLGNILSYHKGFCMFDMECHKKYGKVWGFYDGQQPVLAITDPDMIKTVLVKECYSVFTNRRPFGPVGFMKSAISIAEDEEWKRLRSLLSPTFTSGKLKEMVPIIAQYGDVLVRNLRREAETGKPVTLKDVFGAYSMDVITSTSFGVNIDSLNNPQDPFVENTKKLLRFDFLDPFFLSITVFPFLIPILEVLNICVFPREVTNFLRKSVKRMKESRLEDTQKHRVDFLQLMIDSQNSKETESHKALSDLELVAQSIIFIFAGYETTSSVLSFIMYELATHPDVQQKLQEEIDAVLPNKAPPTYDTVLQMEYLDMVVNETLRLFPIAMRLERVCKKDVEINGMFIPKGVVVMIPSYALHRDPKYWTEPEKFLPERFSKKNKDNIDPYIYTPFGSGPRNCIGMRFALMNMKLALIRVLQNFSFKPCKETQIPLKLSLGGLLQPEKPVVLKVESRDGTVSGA
Method: To determine CYP3A4 phenotype, a single 3 mg oral dose of midazolam hydrochloride, a CYP3A4 substrate, was administered at day -2 (2 days prior to commencing nelfinavir) and again at steady state (cycle 1 day 20). Serial venous blood samples were collected at 15, 30, 60, 120, 180, 240, and 300 minutes following administration of midazolam. […] Plasma concentrations of midazolam and nelfinavir were determined with a validated assay employing high performance liquid chromatography (HPLC) with mass spectrometric detection. Noncompartmental pharmacokinetic analyses were performed with WinNonlin 5.2 (Pharsight). Individual concentration-time profiles were constructed for each patient, course and drug resulting in four profiles per patient (two each for midazolam and nelfinavir). The maximum plasma concentration (Cmax) and the time of maximum plasma concentration (Tmax) were the observed values. Drug exposure was estimated using the area under the concentration-time curve (AUC). The area under the concentration-time curve (AUC) from time zero to the time of the final quantifiable sample (AUClast) was calculated using the linear trapezoidal method. The area under the concentration-time curve from time zero to infinity (AUCinf) was calculated by extrapolation, using the terminal rate constant from the last measurable concentration.

Q: For Cc1c(O)cccc1C(=O)N[C@@H](CSc1ccccc1)[C@H](O)CN1C[C@H]2CCCC[C@H]2C[C@H]1C(=O)NC(C)(C)C [nelfinavir, Nelfinavir], which “time on study, two of the subjects with NET of the midgut” value ([1]; 3125 mg BID) is on record?
A: The value was “at least 8 months”.

Q: What about the “subjects remaining on study for 8 months or more” value ([1]; 3125 mg BID MTD, progressed prior to study entry (four subjects)) of the same compound?
A: Its value is 36%.

Q: And the “ORR (confirmed partial response) at the MTD” value ([1]; 3125 mg bid expansion cohort, 11 evaluable subjects)?
A: Its value is 9% and 9.1%.

Q: What about the “ORR in the overall population” value ([1]; 21 evaluable subjects, all dose levels) of the same compound?
A: The value was 4.8%.

Q: What about the “minor responses in subjects with neuroendocrine tumors” value ([1]; NET of the midgut or pancreatic origin, MTD) of the same compound?
A: Its value is “two”.

Q: And the “subjects with stable disease for more than 6 months” value ([1]; expansion cohort at the MTD)?
A: Its value is “Thirty-six”.

Q: What about the “levels of circulating chromogranin, synaptophysin, and/or urinary 5-HIAA” value ([1]; responders with NET and carcinoid syndrome) of the same compound?
A: The value was “transient decreases”.

Q: What about the “time to improvement of carcinoid syndrome symptoms (flushing and diarrhea)” value ([1]; responders with NET that had carcinoid syndrome) of the same compound?
A: The value was at most 7 days.

Q: What about the Duration of therapy ([1]; subject 1, SCLC, 1250 mg BID) of the same compound?
A: Its Duration of therapy is 1.4 mos.

Q: What about the Duration of therapy ([1]; subject 3, SCLC, 1250 mg BID) of the same compound?
A: Its Duration of therapy is 1.4 mos.

Q: And the Duration of therapy ([1]; subject 4, SCLC, 1250 mg BID)?
A: Its Duration of therapy is 1.4 mos.

Q: What about the Duration of therapy ([1]; subject 5, Anaplastic Thyroid, 1875 mg BID) of the same compound?
A: Its Duration of therapy is 1.4 mos.

Q: And the Duration of therapy ([1]; subject 7, Differentiated Thyroid, 1875 mg BID)?
A: The Duration of therapy was 2.8 mos.

Q: And the Duration of therapy ([1]; subject 8, NSCLC, 1875 mg BID)?
A: The Duration of therapy was 3.5 mos.

Q: What about the Duration of therapy ([1]; subject 9, Colorectal, 2500 mg BID) of the same compound?
A: The Duration of therapy was 1.4 mos.

Q: And the Duration of therapy ([1]; subject 10, Pancreatic Adenocarcinoma, 2500 mg BID)?
A: Its Duration of therapy is 2.8 mos.

Q: And the Duration of therapy ([1]; subject 11, NSCLC, 2500 mg BID)?
A: Its Duration of therapy is 4.1 mos.

Q: What about the Duration of therapy ([1]; subject 12, Differentiated thyroid, 3125 mg BID) of the same compound?
A: Its Duration of therapy is 2.1 mos.

Q: What about the Duration of therapy ([1]; subject 14, Renal Cell Cancer, 3125 mg BID) of the same compound?
A: Its Duration of therapy is 1.4 mos.

Q: What about the Duration of therapy ([1]; subject 17, Adenoid Cystic, 3125 mg BID) of the same compound?
A: The Duration of therapy was 11 mos. and 11.0 mos.

Q: What about the Duration of therapy ([1]; subject 18, Neuroendocrine tumor, 3125 mg BID) of the same compound?
A: Its Duration of therapy is 8.3 mos.

Q: And the Duration of therapy ([1]; subject 19, Colorectal, 3125 mg BID)?
A: Its Duration of therapy is 4.1 mos.

Q: And the Duration of therapy ([1]; subject 21, Adenoid Cystic, 3750 mg BID)?
A: Its Duration of therapy is 1.4 mos.

Q: What about the Duration of therapy ([1]; subject 23, Prostate, 3125 mg BID) of the same compound?
A: Its Duration of therapy is 1.0 mos.

Q: What about the Duration of therapy ([1]; subject 24, SCLC, 3125 mg BID) of the same compound?
A: The Duration of therapy was 2.8 mos.

Q: And the Duration of therapy ([1]; subject 25, Colorectal, 3125 mg BID)?
A: The Duration of therapy was 2.8 mos.

Q: What about the Duration of therapy ([1]; subject 26, Neuroendocrine tumor, 3125 mg BID) of the same compound?
A: Its Duration of therapy is 12.4 mos.

Q: And the Duration of therapy ([1]; subject 27, Neuroendocrine tumor, 3125 mg BID)?
A: Its Duration of therapy is 3.5 mos.

Q: And the Duration of therapy ([1]; subject 28, Neuroendocrine tumor (midgut, carcinoid syndrome), 3125 mg BID)?
A: The Duration of therapy was 23.5 mos.

Q: What about the “additional time on nelfinavir off study with stable disease” value ([1]; subject that achieved a PR, NET of the midgut) of the same compound?
A: The value was “six”.

Q: And the “subject PBMCs showing an increase in P-EIF2 alpha S51” value (P-EIF2 alpha S51)?
A: Its value is 45%.

Q: What about the “change in midazolam clearance” value (CYP3A4; day 20 (nelfinavir steady state) vs pre-nelfinavir (D-2), 3 mg oral midazolam, 19 subjects, p<0.001) of the same compound?
A: Its value is “significant decrease”.

Q: And the “change in midazolam exposure and half-life” value (CYP3A4; day 20 vs pre-nelfinavir, p<0.05 for each, data not shown)?
A: Its value is “significant increase”.
